In patent US8071581B2, “Triazolopyridazine protein kinase modulators” (SGX Pharmaceuticals, Inc., priority 2006, dated 2011):

Experiments:
[1] = molecular target: MET kinase (c-MET), kinase domain of human Met (Homo sapiens, UniProt P08581); test: MET luminescence-based enzyme assay (Kinase-Glo)
GTL16 = GTL16 cell assay (EC50); assay type: cell-based; conditions: Homo sapiens, GTL 16; Table 1
Experimental: Compounds were tested in the following assays in duplicate. 96-well XTT assay: Cells were grown in growth media containing various concentrations of compounds (duplicates) on a 96-well flat bottom plate for 72 hours at 37° C. in 5% CO2. The starting cell number was 5000 cells per well and volume was 120 μl. At the end of the 72-hour incubation, 40 μl of XTT labeling mixture (50:1 solution of sodium 3′-[1-(phenylaminocarbonyl)-3,4-tetrazolium]-bis(4-methoxy-6-nitro) benzene sulfonic acid hydrate and Electron-coupling reagent: PMS (N-methyl dibenzopyrazine methyl sulfate) were added to each well of the plate. After an additional 2-6 hours […] with a spectrophotometer.

MET kinase (c-MET), kinase domain of human Met, sequence (P08581 1078-1345 limits assumed): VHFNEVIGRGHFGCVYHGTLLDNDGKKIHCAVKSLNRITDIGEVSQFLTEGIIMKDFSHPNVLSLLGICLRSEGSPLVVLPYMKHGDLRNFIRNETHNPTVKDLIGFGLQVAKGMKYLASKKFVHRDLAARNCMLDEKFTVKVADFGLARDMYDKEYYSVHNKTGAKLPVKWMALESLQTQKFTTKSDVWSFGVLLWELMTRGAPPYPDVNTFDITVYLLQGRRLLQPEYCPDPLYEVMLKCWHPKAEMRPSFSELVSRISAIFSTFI

Compound | IC50 [1] | EC50 (GTL16)
O=S(=O)(NC1CC1)c1ccc(-c2ccc3nnc(Cc4ccc5ncccc5c4)n3n2)cc1 [compound 1] | < 100 nM | 100 to 1000 nM
O=S(=O)(c1ccc(-c2ccc3nnc(Cc4ccc5ncccc5c4)n3n2)cc1)N1CCCC1 [compound 2] | 100 to 1000 nM | 100 to 1000 nM
CCNS(=O)(=O)c1cccc(-c2ccc3nnc(Cc4ccc5ncccc5c4)n3n2)c1 [compound 3] | < 100 nM | < 100 nM
NC(=O)c1ccc(F)c(-c2ccc3nnc(Cc4ccc5ncccc5c4)n3n2)c1 [compound 4] | 100 to 1000 nM | 1000 to 10000 nM
CS(=O)(=O)c1ccc(-c2ccc3nnc(Cc4ccc5ncccc5c4)n3n2)cc1 [compound 5] | 100 to 1000 nM | 100 to 1000 nM
Fc1ccc(Oc2ccc3nnc(Cc4ccc5ncccc5c4)n3n2)cc1 [compound 6] | 100 to 1000 nM | 100 to 1000 nM
Fc1ccc(Oc2ccc3nnc(Cc4ccc5ncccc5c4)n3n2)cc1F [compound 7, 6-[6-(3,4-Difluoro-phenoxy)-[1,2,4]triazolo[4,3-b]pyridazin-3-ylmethyl]-quinoline] | 100 to 1000 nM | 100 to 1000 nM
c1ccc(Oc2ccc3nnc(Cc4ccc5ncccc5c4)n3n2)cc1 [compound 8] | 100 to 1000 nM | 100 to 1000 nM
COc1cccc(Oc2ccc3nnc(Cc4ccc5ncccc5c4)n3n2)c1 [compound 9] | 100 to 1000 nM | 100 to 1000 nM
NS(=O)(=O)c1ccc(Oc2ccc3nnc(Cc4ccc5ncccc5c4)n3n2)cc1 [compound 10] | 1000 to 10000 nM | 10000 to 50000 nM
NC(=O)c1ccc(Oc2ccc3nnc(Cc4ccc5ncccc5c4)n3n2)cc1 [compound 11] | 1000 to 10000 nM | 10000 to 50000 nM
CS(=O)(=O)c1ccc(Oc2ccc3nnc(Cc4ccc5ncccc5c4)n3n2)cc1 [compound 12] | 1000 to 10000 nM | 10000 to 50000 nM
Oc1ccc(Cc2nnc3ccc(Cl)nn23)cc1 [compound 13] | 1000 to 10000 nM | 10000 to 50000 nM
Oc1ccc(Cc2nnc3ccc(-c4ccccc4)nn23)cc1 [compound 14] | 100 to 1000 nM | 1000 to 10000 nM
Clc1ccc2nnc(Cc3ccc4ncccc4c3)n2n1 [compound 15, 6-(6-Chloro-[1,2,4]triazolo[4,3-b]pyridazin-3-ylmethyl)-quinoline] |  | 1000 to 10000 nM
c1ccc(-c2ccc3nnc(Cc4ccc5ncccc5c4)n3n2)cc1 [compound 16] | 100 to 1000 nM | 100 to 1000 nM
CC(C)(c1ccc2ncccc2c1)c1nnc2ccc(-c3ccccc3)nn12 [compound 18] | 10000 to 50000 nM | 
CC(c1ccc2ncccc2c1)c1nnc2ccc(-c3cccc(F)c3)nn12 (stereo not shown) [compound 20] | < 100 nM | < 100 nM
N#Cc1cccc(-c2ccc3nnc(C(F)c4ccc5ncccc5c4)n3n2)c1 (stereo not shown) [compound 22] | 100 to 1000 nM | 1000 to 10000 nM
O=C(c1ccc(-c2ccc3nnc(Cc4ccc5ncccc5c4)n3n2)cc1)N1CCOCC1 [compound 23] | 100 to 1000 nM | 100 to 1000 nM
Cc1ccc2cc(Cc3nnc4ccc(-c5ccccc5)nn34)ccc2n1 [compound 38, 2-Methyl-6-(6-phenyl-[1,2,4]triazolo[4,3-b]pyridazin-3-ylmethyl)-quinoline] | 1000 to 10000 nM | 
c1ccc(-c2ccc3nnc(CCc4ccc5ncccc5c4)n3n2)cc1 [compound 39] | 10000 to 50000 nM | 
c1ccc(-c2ccc3nnc([C@H]4C[C@@H]4c4ccc5ncccc5c4)n3n2)cc1 [compound 40] | 10000 to 50000 nM | 
Clc1nc2ccc(Cc3nnc4ccc(-c5ccccc5)nn34)cc2s1 [compound 44] | 1000 to 10000 nM | 
N#Cc1cccc(-c2ccc3nnc(Cc4ccc5ncccc5c4)n3n2)c1 [compound 59] |  | < 100 nM
N#Cc1ccc(-c2ccc3nnc(Cc4ccc5ncccc5c4)n3n2)cc1 [compound 60] |  | 100 to 1000 nM

Compound | IC50 [1] | EC50 (GTL16)
Fc1ccc(-c2ccc3nnc(Cc4ccc5ncccc5c4)n3n2)cc1F [compound 73] |  | < 100 nM
Cc1cc(Cc2nnc3ccc(-c4cnn(C)c4)nn23)cc2cccnc12 [compound 91] | 1000 to 10000 nM | 
Cn1cc(-c2ccc3nnc(Cc4cc(F)c5ncccc5c4)n3n2)cn1 [compound 92] | 1000 to 10000 nM | 
Fc1cccc(-c2ccc3nnc(Cc4ccc5ncsc5c4)n3n2)c1 [compound 93] | 1000 to 10000 nM | 
Fc1cc(F)cc(-c2ccc3nnc(Cc4ccc5ncsc5c4)n3n2)c1 [compound 97] | 100 to 1000 nM | 
C[C@H](c1ccc2ncsc2c1)c1nnc2ccc(-c3cccc(C#N)c3)nn12 [compound 104, I-3-[3-(1-Benzothiazol-6-yl-ethyl)-[1,2,4]triazolo[4,3-b]pyridazin-6-yl]-benzonitrile] | 100 to 1000 nM | 
Cc1ccc2nnc(Cc3ccc4ncccc4c3)n2n1 [compound 105] | 100 to 1000 nM | 
Cc1ccc2nnc(Cc3ccc4ncc(Br)cc4c3)n2n1 [compound 106] | 100 to 1000 nM | 
Cn1cc(-c2ccc3nnc(Cc4c[nH]c5ncccc45)n3n2)cn1 [compound 108, 6-(1-Methyl-1H-pyrazol-4-yl)-3-(1H-pyrrolo[2,3-b]pyridine-3-ylmethyl)-[1,2,4]triazolo[4,3-b]pyridazine] |  | < 100 nM
Cc1ccc2nnc(Cc3ccc4ncc(C#N)cc4c3)n2n1 [compound 110, 6-(6-Methyl-[1,2,4]triazolo[4,3-b]pyridazin-3-ylmethyl)-quinoline-3-carbonitrile] | 1000 to 10000 nM | 
CCc1ccc2nnc(Cc3c(F)cc4ncc(Br)cc4c3F)n2n1 [compound 115] | 100 to 1000 nM | 
CCc1cnc2ccc(Cc3nnc4ccc(C)nn34)cc2c1 [compound 116, 3-Ethyl-6-(6-methyl-[1,2,4]triazolo[4,3-b]pyridazin-3-ylmethyl)-quinoline] | < 100 nM | 
Cc1ccc2nnc(C(C)c3ccc4ncc(Br)cc4c3)n2n1 (stereo not shown) [compound 119, 3-Bromo-6-[1-(6-methyl-[1,2,4]triazolo[4,3-b]pyridazin-3-yl)-ethyl]-quinoline] | < 100 nM | 
CCc1ccc2nnc(Cc3ccc4ncc(Br)cc4c3F)n2n1 [compound 121] | 100 to 1000 nM | 
Cc1ccc2nnc(Cc3ccc4ncc(-n5cccn5)cc4c3)n2n1 [compound 127] | 100 to 1000 nM | 
Cc1ccc2nnc(Cc3ccc4ncc(-c5c[nH]nc5C)cc4c3)n2n1 [compound 150] | 100 to 1000 nM | 
Cc1ccc2nnc(Cn3ccc4ncc(-c5cnn(C)c5)cc43)n2n1 [compound 178] | 1000 to 10000 nM | 
Cc1ccc2nnc(Cc3ccc4ncc(-c5cnn(C6CN(C)C6)c5)cc4c3)n2n1 [compound 183] | < 100 nM | 
CCc1ccc2nnc(Cc3ccc4ncc(-c5cnn(C6CNC6)c5)cc4c3F)n2n1 [compound 184] | < 100 nM | 
CCc1ccc2nnc(Cc3c(F)cc4ncc(-c5cnn(C6CNC6)c5)cc4c3F)n2n1 [compound 185] | < 100 nM | 
CCc1ccc2nnc(Cc3ccc4ncc(-c5cnn(C6CN(CC)C6)c5)cc4c3F)n2n1 [compound 186] | < 100 nM | 
CCc1ccc2nnc(Cc3c(F)cc4ncc(-c5cnn(C6CN(CC)C6)c5)cc4c3F)n2n1 [compound 187] | < 100 nM | 
CCN1CC(n2cc(-c3cnc4cc(F)c(Cc5nnc6ccc(C)nn56)c(F)c4c3)cn2)C1 [compound 188] | < 100 nM | 
CCc1ccc2nnc(Cc3ccc4ncc(-c5cnn(C6CNC6)c5)cc4c3)n2n1 [compound 189] | < 100 nM | 
CCN1CC(n2cc(-c3cnc4ccc(C(C)c5nnc6ccc(C)nn56)cc4c3)cn2)C1 (stereo not shown) [compound 190] | < 100 nM | 
Cc1ccc2nnc(C(C)c3ccc4ncc(-c5cnn(C)c5)cc4c3)n2n1 (stereo not shown) [compound 191] | < 100 nM | 
